Source: patent US6689094B2, “Compound delivery using impulse transients” (priority 1996, dated 2004)

Test system: stratum corneum
Excerpt: For these experiments, a Q-switched solid state ruby laser (20 ns pulse duration, capable of generating up to 2 joules per pulse) was used to generate the laser beam, which hit the target material (black polystyrene sheet about 1 mm thick) and generated a single impulse transient. Impulse transients of up to 1000 bar peak stress and 50 ns duration and with a ½ inch beam diameter can be generated with this laser-target system. The large target ensures that the impulse transients generated are plane waves, because the thickness of the coupling medium is much shorter than the diameter of the impulse transient. An articulating arm was used and the laser path was totally covered for safety.
The washer was attached onto the skin with grease. The sample filled the central opening of the washer, which was approximately ¼ inch in diameter. The target material was positioned on top of the washer and irradiated with 1 laser pulse.
The black polystyrene target completely absorbed the laser radiation so that the skin was exposed only to impulse transients, and not laser radiation. […] The skin was monitored for fluorescence of protophyrin IX thirty minutes after exposure to the impulse transients.
All fluorescence measurements were compared to the fluorescence emission of the target site on the stratum corneum before the experiments.

time for which protophyrin IX fluorescence intensity increased until maximum intensity (5% ALA in PBS, single impulse transient, skin fluorescence): approximately 4 hours | time post-treatment at which the fluorescence peak at about 640 nm is highest (FIG. 1, single impulse transient): 210 min | change of skin fluorescence intensity over time without impulse transient (FIG. 2, adjacent control site, ALA applied without any impulse transients): little change in the intensity | dependence of transdermal transport on peak stress (FIG. 3, single impulse transient at 300, 400 or 600 bar): increases with increasing peak stress
SMILES: NCC(=O)CCC(=O)O [ALA, 5-aminolevulenic acid]
protophyrin IX fluorescence when compound applied after the impulse transient (ALA applied on the same sites 5 minutes after impulse transients): no fluorescence emission from protophyrin IX was observed
